In the supplement of paper PMC11208160:

Assay: recombinant barcode read abundance after kanamycin selection (control-corrected) (log10(CPM+1)); higher = more efficient recombination; sequences stand for … in AGTGCAGAGAAAATCGGCCAGTTTTCTCTGCCTGCAGTCCGCATGCCGT…AGATTTATGCAGCGGACTGCCTTTCTCCCAAAGTGATAAACCGGACAGTATCATGGACCGGTTTTCCCGGTAATCCGTATTTGCAAGGTTGGTTTCACT; site = the 11-nt target
Method: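 Pooled E. coli target-specificity screen for the IS621 bridge recombinase. Each library plasmid pairs an 11-nt target (CT core) with a bridge RNA whose target-binding loop (9-nt LTG + 4-nt RTG) is reprogrammed; the rest of the 177-nt WT IS621 bridge RNA scaffold is fixed. The plasmid is co-electroporated with a WT donor plasmid; recombinase is induced with 0.1 mM IPTG and recombinants are selected on kanamycin. Recombinant barcodes are sequenced, converted to CPM, averaged over two biological replicates and corrected by the unselected control CPM. Molecule = full bridge RNA written as DNA: LTG = specificity nt 1-9, RTG = reverse complement of specificity nt 8-11, in the WT scaffold.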
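Further: IS621 recombinase and bridge RNA in Escherichia coli cells.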

Sequence	recombinant barcode read abundance (log10)
AGCCACACTTGGGTTCTAACCTGTTGCGT (site AGCCACACTAC)	0.948
AGCCACACTTGGGTTCTAACCTGTTGCGT (site TGCCAGACTAC)	0.183
AGCCCTCCTTGGGTTCTAACCTGTTGCTT (site AGCCCTCCTAA)	0.518
AGCCCTCCTTGGGTTCTAACCTGTTGCTT (site AGCCCTCCTCA)	0.667
AGCCCTCCTTGGGTTCTAACCTGTTGCTT (site AGCCCTCCTGA)	0.038
AGCCCTCCTTGGGTTCTAACCTGTTGCTT (site AGCCCTCCTTA)	0.0347
AGCCTCCCTTGGGTTCTAACCTGTTGCCT (site AGACTCCCTAG)	0.089
AGCCTCCCTTGGGTTCTAACCTGTTGCCT (site AGCCTCCCTAG)	0.474
AGCCTCCCTTGGGTTCTAACCTGTTGCCT (site AGGCTCCCTAG)	0.0381
AGCCTCCCTTGGGTTCTAACCTGTTGCCT (site AGTCTCCCTAG)	0.578
AGCCTGACTTGGGTTCTAACCTGTTGCCT (site AGCCTGACTAG)	0.741
AGCCTGACTTGGGTTCTAACCTGTTGCCT (site AGCCTGCCTAG)	0.313
AGCCTGACTTGGGTTCTAACCTGTTGCCT (site AGCCTGGCTAG)	0.332
AGCCTGACTTGGGTTCTAACCTGTTGCCT (site AGCCTGTCTAG)	0
AGCCTGGCTTGGGTTCTAACCTGTTGCCT (site AGCCTGACTAG)	0.302
AGCCTGGCTTGGGTTCTAACCTGTTGCCT (site AGCCTGCCTAG)	0.235
AGCCTGGCTTGGGTTCTAACCTGTTGCCT (site AGCCTGGCTAG)	0.594
AGCCTGGCTTGGGTTCTAACCTGTTGCCT (site AGCCTGTCTAG)	0.0926
AGCGCTTCTTGGGTTCTAACCTGTTGCCT (site AACGCTTCTAG)	0.241
AGCGCTTCTTGGGTTCTAACCTGTTGCCT (site ACCGCTTCTAG)	0.423
AGCGCTTCTTGGGTTCTAACCTGTTGCCT (site AGCGCTTCTAG)	0.454

Sequence	recombinant barcode read abundance (log10)
AGCGCTTCTTGGGTTCTAACCTGTTGCCT (site ATCGCTTCTAG)	0.0212
AGCGGACCTTGGGTTCTAACCTGTTGCCT (site AGCGGACCTAG)	1.45
AGCGGACCTTGGGTTCTAACCTGTTGCCT (site AGCGGCCCTAG)	0.133
AGCGGACCTTGGGTTCTAACCTGTTGCCT (site AGCGGGCCTAG)	0.188
AGCGGACCTTGGGTTCTAACCTGTTGCCT (site AGCGGTCCTAG)	0.0865
AGCTCACCTTGGGTTCTAACCTGTTGCCT (site AGCTCACCTAG)	0.216
AGCTCACCTTGGGTTCTAACCTGTTGCCT (site AGCTCATCTAG)	0.147
AGCTTACCTTGGGTTCTAACCTGTTGCCT (site AGCTTACCTAG)	0.204
AGCTTACCTTGGGTTCTAACCTGTTGCCT (site CGCTTACCTAG)	0.212
AGCTTACCTTGGGTTCTAACCTGTTGCCT (site GGCTTACCTAG)	0.105
AGCTTACCTTGGGTTCTAACCTGTTGCCT (site TGCTTACCTAG)	0.0503
AGCTTAGCTTGGGTTCTAACCTGTTGCCC (site AGCTTAGCTAG)	0.306
AGCTTAGCTTGGGTTCTAACCTGTTGCCC (site AGCTTAGCTCG)	0.0502
AGCTTAGCTTGGGTTCTAACCTGTTGCCC (site AGCTTAGCTGG)	0.395
AGCTTAGCTTGGGTTCTAACCTGTTGCCC (site AGCTTAGCTTG)	0.0493
AGCTTGCCTTGGGTTCTAACCTGTTGCAG (site AGCTTGCCTCT)	0.717
AGCTTGCCTTGGGTTCTAACCTGTTGCAG (site CATAGCGCTAG)	0.277
AGCTTTGCTTGGGTTCTAACCTGTTGCCT (site AGCATTGCTAG)	0.015
AGCTTTGCTTGGGTTCTAACCTGTTGCCT (site AGCCTTGCTAG)	0.171
AGCTTTGCTTGGGTTCTAACCTGTTGCCT (site AGCGTTGCTAG)	0.669
AGCTTTGCTTGGGTTCTAACCTGTTGCCT (site AGCTTTGCTAG)	0.0693

Sequence	recombinant barcode read abundance (log10)
AGGAACCCTTGGGTTCTAACCTGTTGCTG (site AGGAACCCTAA)	0.712
AGGAACCCTTGGGTTCTAACCTGTTGCTG (site AGGAACCCTCA)	1.78
AGGAACCCTTGGGTTCTAACCTGTTGCTG (site AGGAACCCTGA)	0.106
AGGAACCCTTGGGTTCTAACCTGTTGCTG (site AGGAACCCTTA)	0.08
AGGACGACTTGGGTTCTAACCTGTTGCCT (site AGCGCGACTAG)	0.0505
AGGACGACTTGGGTTCTAACCTGTTGCCT (site AGGACGACTAG)	0.376
AGGAGAACTTGGGTTCTAACCTGTTGCCT (site AGCATAACTAG)	0.447
AGGAGAACTTGGGTTCTAACCTGTTGCCT (site AGGAGAACTAG)	1.35
AGGAGCCCTTGGGTTCTAACCTGTTGCTC (site AGGAGCCCTAA)	0.124
AGGAGCCCTTGGGTTCTAACCTGTTGCTC (site AGGAGCCCTCA)	0.152
AGGAGCCCTTGGGTTCTAACCTGTTGCTC (site AGGAGCCCTGA)	0.377
AGGAGCCCTTGGGTTCTAACCTGTTGCTC (site AGGAGCCCTTA)	0.0844
AGGAGCCCTTGGGTTCTAACCTGTTGCTT (site AGGAGCCCTAA)	1.25
AGGAGCCCTTGGGTTCTAACCTGTTGCTT (site AGGAGCCCTCA)	0.0777
AGGAGCCCTTGGGTTCTAACCTGTTGCTT (site AGGAGCCCTGA)	0.0286
AGGAGCCCTTGGGTTCTAACCTGTTGCTT (site AGGAGCCCTTA)	0.271
AGGAGCGCTTGGGTTCTAACCTGTTGCCT (site AGCAGCTCTAG)	0.105
AGGAGCGCTTGGGTTCTAACCTGTTGCCT (site AGGAGCGCTAG)	1.95
AGGAGTCCTTGGGTTCTAACCTGTTGCAG (site AGGAGTCCTCT)	2.24
AGGAGTCCTTGGGTTCTAACCTGTTGCAG (site GTACAAGCTAG)	0.239
AGGCAGACTTGGGTTCTAACCTGTTGCCA (site AGGAAGACTTG)	0.0571

Sequence	recombinant barcode read abundance (log10)
AGGCAGACTTGGGTTCTAACCTGTTGCCA (site AGGCAGACTTG)	0.699
AGGCAGACTTGGGTTCTAACCTGTTGCCA (site AGGGAGACTTG)	0.216
AGGCAGACTTGGGTTCTAACCTGTTGCCA (site AGGTAGACTTG)	0.639
AGGCAGTCTTGGGTTCTAACCTGTTGCCT (site AGGCAGTCTAG)	0.444
AGGCAGTCTTGGGTTCTAACCTGTTGCCT (site AGGCCGTCTAC)	0.0845
AGGCGCCCTTGGGTTCTAACCTGTTGCAA (site AGGCGCCCTAT)	0.187
AGGCGCCCTTGGGTTCTAACCTGTTGCAA (site AGGCGCCCTCT)	0.0506
AGGCGCCCTTGGGTTCTAACCTGTTGCAA (site AGGCGCCCTGT)	0.0953
AGGCGCCCTTGGGTTCTAACCTGTTGCAA (site AGGCGCCCTTT)	0.635
AGGCTGACTTGGGTTCTAACCTGTTGCCT (site AGGCTGACTAG)	0.94
AGGCTGACTTGGGTTCTAACCTGTTGCCT (site AGGCTGCCTAG)	0.0128
AGGCTGACTTGGGTTCTAACCTGTTGCCT (site AGGCTGGCTAG)	0.0298
AGGCTGACTTGGGTTCTAACCTGTTGCCT (site AGGCTGTCTAG)	0.139
AGGCTTACTTGGGTTCTAACCTGTTGCAG (site AGGCTTACTCT)	1.47
AGGCTTACTTGGGTTCTAACCTGTTGCAG (site AGTCCTACTCT)	0.0844
AGGGACTCTTGGGTTCTAACCTGTTGCCG (site AGGGACTCTCG)	1.71
AGGGACTCTTGGGTTCTAACCTGTTGCCG (site TGGGACACTCG)	0.0423
AGGGAGACTTGGGTTCTAACCTGTTGCTC (site AGGGAGACTGA)	2.64
AGGGAGACTTGGGTTCTAACCTGTTGCTC (site CACTTTGCTAG)	0.151
